Source: patent publication US12077503B2, “Substituted cyclic amides and their use as herbicides” (FMC CORPORATION, priority 2015, dated 2024)

Legend:
Assay type in all cases: in vivo
Kochia (Kochia scoparia) [1] = assay: Test A postemergence; details: Bassia scoparia, post-emergence, 240 h
Summary of the method: (§1)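 Each rating is a visual injury score from 0 to 100 given about 10 d after treatment, judged against untreated controls kept alongside in the greenhouse. In loam soil–sand blend, seeds got a preemergence directed soil spray, while postemergence plants were 2 to 10 cm tall at spraying.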

[2] = tested on: ryegrass, Italian (Italian ryegrass, Lolium multiflorum); assay: Test A postemergence; details: Lolium multiflorum, post-emergence, 240 h
Summary of the method: as §1

corn (Zea mays) = assay: Test A postemergence; details: Zea mays, post-emergence, 240 h
Summary of the method: as §1

[3] = tested on: blackgrass (Alopecurus myosuroides); assay: Test A postemergence; details: Alopecurus myosuroides, post-emergence, 240 h
Summary of the method: as §1

[4] = tested on: giant foxtail (Setaria faberii); assay: Test A postemergence; details: Setaria faberi, post-emergence, 240 h
Summary of the method: as §1

[5] = tested on: pigweed (Amaranthus retroflexus); assay: Test A postemergence; details: Amaranthus retroflexus, post-emergence, 240 h
Summary of the method: as §1

[6] = tested on: Galium (catchweed bedstraw, Galium aparine); assay: Test A postemergence; details: Galium, post-emergence, 240 h
Summary of the method: as §1

[7] = tested on: wheat (Triticum aestivum); assay: Test A postemergence; details: Triticum aestivum, post-emergence, 240 h
Summary of the method: as §1

[8] = tested on: barnyardgrass (Echinochloa crus-galli); assay: Test A postemergence; details: Echinochloa crus-galli, post-emergence, 240 h
Summary of the method: as §1

[9] = tested on: ragweed (common ragweed, Ambrosia elatior); assay: Test A postemergence; details: Ambrosia artemisiifolia, post-emergence, 240 h
Summary of the method: as §1

rice (Oryra sativa) = assay: Test B flooded paddy test; details: Oryza sativa, 250 g ai/ha, Flood; 0 to 100 scale where 0 is no effect and 100 is complete control; read-out: Rice plant response rating
Summary of the method: (§2)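 Response scored visually against untreated controls, 0 = no effect and 100 = complete control, 13–15 d after treatment in the greenhouse. Compounds added to paddy water held 3 cm above soil surface. Treatment given at 2-leaf stage.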

[10] = tested on: sedge, umbrella (small-flower umbrella sedge, Cyperus difformis); assay: Test B flooded paddy test; details: Cyperus difformis, 250 g ai/ha, Flood; 0 to 100 scale where 0 is no effect and 100 is complete control; read-out: Sedge, Umbrella plant response rating
Summary of the method: as §2

[11] = tested on: ducksalad (Heteranthera limosa); assay: Test B flooded paddy test; details: Heteranthera limosa, 250 g ai/ha, Flood; 0 to 100 scale where 0 is no effect and 100 is complete control; read-out: Ducksalad plant response rating
Summary of the method: as §2

[12] = tested on: barnyardgrass (Echinochloa crus-galli); assay: Test B flooded paddy test; details: Echinochloa crus-galli, 250 g ai/ha, Flood; 0 to 100 scale where 0 is no effect and 100 is complete control; read-out: Barnyardgrass plant response rating
Summary of the method: as §2

Kochia (Kochia scoparia) [13] = assay: Test A preemergence; details: Bassia scoparia, pre-emergence, 240 h, 0 to 100 scale where 0 is no effect and 100 is complete control, read-out: Kochia plant response rating
Summary of the method: as §1

[14] = tested on: ryegrass, Italian (Italian ryegrass, Lolium multiflorum); assay: Test A preemergence; details: Lolium multiflorum, pre-emergence, 240 h, 0 to 100 scale where 0 is no effect and 100 is complete control, read-out: Ryegrass, Italian plant response rating
Summary of the method: as §1

[15] = tested on: giant foxtail (Setaria faberii); assay: Test A preemergence; details: Setaria faberi, pre-emergence, 240 h, 0 to 100 scale where 0 is no effect and 100 is complete control, read-out: Foxtail, Giant plant response rating
Summary of the method: as §1

[16] = tested on: pigweed (Amaranthus retroflexus); assay: Test A preemergence; details: Amaranthus retroflexus, pre-emergence, 240 h, 0 to 100 scale where 0 is no effect and 100 is complete control, read-out: Pigweed plant response rating
[17] = tested on: barnyardgrass (Echinochloa crus-galli); assay: Test A preemergence; details: Echinochloa crus-galli, pre-emergence, 240 h, 0 to 100 scale where 0 is no effect and 100 is complete control, read-out: Barnyardgrass plant response rating
Summary of the method: as §1

[18] = tested on: ragweed (common ragweed, Ambrosia elatior); assay: Test A preemergence; details: Ambrosia artemisiifolia, pre-emergence, 240 h, 0 to 100 scale where 0 is no effect and 100 is complete control, read-out: Ragweed plant response rating
Summary of the method: as §1

[19] = 125 g ai/ha, preemergence, approx. 10 d

For `CN1C[C@H](c2cccc([Si](C)(C)C)c2)[C@@H](C(=O)Nc2cccc(F)c2F)C1=O` [Compound 1166], which pest or weed control at 125 g/ha (Kochia (Kochia scoparia) [1]; 125 g ai/ha, postemergence, visual injury vs untreated controls after approx. 10 d, 0 = no effect, 100 = complete control, read-out: Kochia plant response rating (0 to 100 scale)) is on record?
The pest or weed control at 125 g/ha was 0%.

What about the pest or weed control at 31 g/ha (Kochia (Kochia scoparia) [1]; Postemergence, 31 g ai/ha, visual injury after approx. 10 d, 0 to 100 scale, 0 no effect, 100 complete control, read-out: Plant response rating, Kochia) of the same compound?
Its pest or weed control at 31 g/ha is 0%.

What about the pest or weed control at 125 g/ha ([2]; 125 g ai/ha, postemergence, visual injury vs untreated controls after approx. 10 d, 0 = no effect, 100 = complete control, read-out: Ryegrass, Italian plant response rating (0 to 100 scale)) of the same compound?
Its pest or weed control at 125 g/ha is 0%.

What about the pest or weed control at 31 g/ha ([2]; Postemergence, 31 g ai/ha, visual injury after approx. 10 d, 0 to 100 scale, 0 no effect, 100 complete control, read-out: Plant response rating, Ryegrass, Italian) of the same compound?
Its pest or weed control at 31 g/ha is 0%.

What about the plant injury at 125 g/ha (corn (Zea mays); 125 g ai/ha, postemergence, visual injury vs untreated controls after approx. 10 d, 0 = no effect, 100 = complete control, read-out: Corn plant response rating (0 to 100 scale)) of the same compound?
The plant injury at 125 g/ha was 0%.

What about the Corn plant response rating (crop injury, 0 = no effect, 100 = complete kill) at 31 g/ha (corn (Zea mays); Postemergence, 31 g ai/ha, visual injury after approx. 10 d, 0 to 100 scale, 0 no effect, 100 complete control) of the same compound?
Its Corn plant response rating (crop injury, 0 = no effect, 100 = complete kill) at 31 g/ha is 0%.

And the pest or weed control at 125 g/ha ([3]; 125 g ai/ha, postemergence, visual injury vs untreated controls after approx. 10 d, 0 = no effect, 100 = complete control, read-out: Blackgrass plant response rating (0 to 100 scale))?
The pest or weed control at 125 g/ha was 0%.

And the pest or weed control at 31 g/ha ([3]; Postemergence, 31 g ai/ha, visual injury after approx. 10 d, 0 to 100 scale, 0 no effect, 100 complete control, read-out: Plant response rating, Blackgrass)?
The pest or weed control at 31 g/ha was 0%.

What about the pest or weed control at 125 g/ha ([4]; 125 g ai/ha, postemergence, visual injury vs untreated controls after approx. 10 d, 0 = no effect, 100 = complete control, read-out: Foxtail, Giant plant response rating (0 to 100 scale)) of the same compound?
The pest or weed control at 125 g/ha was 20%.

What about the pest or weed control at 31 g/ha ([4]; Postemergence, 31 g ai/ha, visual injury after approx. 10 d, 0 to 100 scale, 0 no effect, 100 complete control, read-out: Plant response rating, Foxtail, Giant) of the same compound?
The pest or weed control at 31 g/ha was 0%.

What about the pest or weed control at 125 g/ha ([5]; 125 g ai/ha, postemergence, visual injury vs untreated controls after approx. 10 d, 0 = no effect, 100 = complete control, read-out: Pigweed plant response rating (0 to 100 scale)) of the same compound?
The pest or weed control at 125 g/ha was 0%.

What about the pest or weed control at 31 g/ha ([5]; Postemergence, 31 g ai/ha, visual injury after approx. 10 d, 0 to 100 scale, 0 no effect, 100 complete control, read-out: Plant response rating, Pigweed) of the same compound?
The pest or weed control at 31 g/ha was 0%.

And the pest or weed control at 125 g/ha ([6]; 125 g ai/ha, postemergence, visual injury vs untreated controls after approx. 10 d, 0 = no effect, 100 = complete control, read-out: Galium plant response rating (0 to 100 scale))?
Its pest or weed control at 125 g/ha is 0%.

And the pest or weed control at 31 g/ha ([6]; Postemergence, 31 g ai/ha, visual injury after approx. 10 d, 0 to 100 scale, 0 no effect, 100 complete control, read-out: Plant response rating, Galium)?
Its pest or weed control at 31 g/ha is 0%.

What about the plant injury at 125 g/ha ([7]; 125 g ai/ha, postemergence, visual injury vs untreated controls after approx. 10 d, 0 = no effect, 100 = complete control, read-out: Wheat plant response rating (0 to 100 scale)) of the same compound?
The plant injury at 125 g/ha was 0%.

And the plant injury at 31 g/ha ([7]; Postemergence, 31 g ai/ha, visual injury after approx. 10 d, 0 to 100 scale, 0 no effect, 100 complete control, read-out: Plant response rating, Wheat)?
The plant injury at 31 g/ha was 0%.

And the pest or weed control at 125 g/ha ([8]; 125 g ai/ha, postemergence, visual injury vs untreated controls after approx. 10 d, 0 = no effect, 100 = complete control, read-out: Barnyardgrass plant response rating (0 to 100 scale))?
The pest or weed control at 125 g/ha was 0%.

What about the pest or weed control at 31 g/ha ([8]; Postemergence, 31 g ai/ha, visual injury after approx. 10 d, 0 to 100 scale, 0 no effect, 100 complete control, read-out: Plant response rating, Barnyardgrass) of the same compound?
The pest or weed control at 31 g/ha was 0%.

What about the pest or weed control at 125 g/ha ([9]; 125 g ai/ha, postemergence, visual injury vs untreated controls after approx. 10 d, 0 = no effect, 100 = complete control, read-out: Ragweed plant response rating (0 to 100 scale)) of the same compound?
The pest or weed control at 125 g/ha was 0%.

And the pest or weed control at 31 g/ha ([9]; Postemergence, 31 g ai/ha, visual injury after approx. 10 d, 0 to 100 scale, 0 no effect, 100 complete control, read-out: Plant response rating, Ragweed)?
Its pest or weed control at 31 g/ha is 0%.

And the pest or weed control at 250 g/ha (rice (Oryra sativa))?
The pest or weed control at 250 g/ha was 25%.

And the pest or weed control at 250 g/ha [10]?
The pest or weed control at 250 g/ha was 0%.

And the pest or weed control at 250 g/ha [11]?
The pest or weed control at 250 g/ha was 30%.

What about the pest or weed control at 250 g/ha [12] of the same compound?
Its pest or weed control at 250 g/ha is 40%.

And the pest or weed control at 31 g/ha (Kochia (Kochia scoparia) [13]; 31 g ai/ha, Preemergence)?
Its pest or weed control at 31 g/ha is 0%.

And the pest or weed control at 125 g/ha (Kochia (Kochia scoparia) [13]; [19])?
The pest or weed control at 125 g/ha was 0%.

And the pest or weed control at 31 g/ha ([14]; 31 g ai/ha, Preemergence)?
Its pest or weed control at 31 g/ha is 0%.

And the pest or weed control at 125 g/ha [14, 19]?
The pest or weed control at 125 g/ha was 0%.

And the pest or weed control at 31 g/ha ([15]; 31 g ai/ha, Preemergence)?
The pest or weed control at 31 g/ha was 20%.

And the pest or weed control at 125 g/ha [15, 19]?
Its pest or weed control at 125 g/ha is 80%.

What about the pest or weed control at 31 g/ha ([16]; 31 g ai/ha, Preemergence) of the same compound?
Its pest or weed control at 31 g/ha is 0%.

And the pest or weed control at 125 g/ha [16, 19]?
The pest or weed control at 125 g/ha was 0%.

And the pest or weed control at 31 g/ha ([17]; 31 g ai/ha, Preemergence)?
Its pest or weed control at 31 g/ha is 0%.

And the pest or weed control at 125 g/ha [17, 19]?
The pest or weed control at 125 g/ha was 20%.

What about the pest or weed control at 31 g/ha ([18]; 31 g ai/ha, Preemergence) of the same compound?
Its pest or weed control at 31 g/ha is 0%.

What about the pest or weed control at 125 g/ha [18, 19] of the same compound?
Its pest or weed control at 125 g/ha is 0%.
